Laboratory results published in patent US20260364184A1, “COMPOUND BASED ON OXOISOINDOLINYL-SUBSTITUTED TETRAHYDROPYRIMIDINE-DIONE AND USE THEREOF” (GLUETACS THERAPEUTICS (SHANGHAI) CO., LTD., priority 2023, published 2026).

Legend:
Type in all cases: cell-based
[1] = tested on: Human myeloid monocytic leukemia cell line (MV-4-11); assay: Inhibition of MV-4-11 cell proliferation (CellTiter luminescent viability); details: Homo sapiens, MV4-11, Table IA3, IRAK4 inhibitor-based, 96 hours; for inhibition at 0.01 µM: MV-4-11, 10 nM, read-out: Inhibition Rate at 10 nM (%); for inhibition at 0.5 µM: MV-4-11, 500 nM, read-out: Inhibition Rate at 500 nM (%)
How it was run: (§1)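 IC50 is fitted from luminescent viability (CellTiter-Meiluncell) curves. Nine-point, 5-fold dilution series (top stock 2000 μM) are added at 0.5 μL per 100 μL medium to cells plated the day before, with growth at 37 °C and 5% CO2.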

[2] = tested on: Human Multiple myeloma cell line (MM.1S); assay: Inhibition of MM.1S cell proliferation (CellTiter luminescent viability); details: Homo sapiens, MM1.S, Table IA5, IRAK4 inhibitor-based, 96 hours; for inhibition at 0.01 µM: 10 nM, read-out: Inhibition Rate at 10 nM (%); for inhibition at 0.5 µM: 500 nM, read-out: Inhibition Rate at 500 nM (%)
How it was run: as §1

[3] = Inhibition of RPMI-8226 cell proliferation (CellTiter luminescent viability); details: Homo sapiens; Table IA4, IRAK4 inhibitor-based; RPMI-8226, 10 nM, 96 hours; read-out: Inhibition Rate at 10 nM (%)
Procedure: (§2) The tumor cells used herein were cultured in a cell culture medium listed in table 3 at 37 °C in an incubator with 5% CO2. Prior to experimentation, all cell lines used were correctly identified by STR profiling, and tested negative for mycoplasma contamination using a mycoplasma detection kit through routine screenings.
(§3) The IC50 values of the compounds of the present disclosure (including the compounds in Table 1, Table 2, and Examples 1-468) were determined using the CellTiter-Meiluncell Luminescent Cell Viability Assay Kit from Dalian Meilun Biotech Co., Ltd. The detailed procedure is as follows: Tumor cells were seeded in 96-well cell culture plates at the densities specified in Table 4. On the following day, the test compounds of the present disclosure were subjected to serial dilution. The dilution can be performed according to one of the following two methods: • (1) The first dilution method: The test compounds of the present disclosure (including the compounds in Table 1, Table 2, and Examples 1-468) were subjected to 5-fold serial dilutions starting from a highest concentration of 2000 μM, resulting in a total of 9 concentrations from high to low (2000, 400, 80, 16, 3.2, 0.64, 0.128, 0.0256, 0.00512 μM). Subsequently, 0.5 μL of the test compound dilution was transferred into the 96-well plate containing the cells, with each well containing 100 μL of cell culture medium. […] Into the 96-well plate, the diluted test compounds and corresponding detection reagents were added, resulting in final test compound concentrations of 500 nM and 10 nM, respectively. The experimental procedure is described below using the diluted 2 μM test compound as an example.
(§4) 0.5 μL of the aforementioned diluted compound of the present disclosure (including the compounds in Table 1, Table 2, and Examples 1-468) was added to the seeded cells in 100 μL of medium, yielding a final test compound concentration of 10 nM. After the cells were treated with the compounds of the present disclosure for a specified period, the cell viability assay reagent was added to the culture medium according to the kit's instructions to determine cell viability. […] All controls were treated using the same procedure as the compounds of the present disclosure. The growth inhibition curves for the compounds of the present disclosure were plotted using Prism GraphPad software, and the IC50 values were calculated therefrom.

[4] = tested on: Human B-Cell Lymphoma Cells (RPMI-8226); assay: as above; details: Table IA4, IRAK4 inhibitor-based, RPMI-8226, 500 nM, 96 hours, read-out: Inhibition Rate at 500 nM (%)
Procedure: as §2, §3, §4

[5] = tested on: Human Acute T Lymphoblastic Leukemia Cells (Molt-4); assay: Inhibition of Molt-4 cell proliferation (CellTiter luminescent viability); details: Homo sapiens, MOLT-4, 96 h, Table IA2, IRAK4 inhibitor-based, 96 hours; for inhibition at 0.01 µM: Molt-4, 10 nM, read-out: Inhibition Rate at 10 nM (%); for inhibition at 0.5 µM: Molt-4, 500 nM, read-out: Inhibition Rate at 500 nM (%)
IRAK4 = biological target: T1, IRAK4 (Homo sapiens, UniProt Q9NWZ3); assay: Western blot degradation of IRAK4; details: hPBMC Cell; 24 hours
T1 construct: expression of target proteins in cells; endogenous in cells
T1 sequence (Q9NWZ3 1-460): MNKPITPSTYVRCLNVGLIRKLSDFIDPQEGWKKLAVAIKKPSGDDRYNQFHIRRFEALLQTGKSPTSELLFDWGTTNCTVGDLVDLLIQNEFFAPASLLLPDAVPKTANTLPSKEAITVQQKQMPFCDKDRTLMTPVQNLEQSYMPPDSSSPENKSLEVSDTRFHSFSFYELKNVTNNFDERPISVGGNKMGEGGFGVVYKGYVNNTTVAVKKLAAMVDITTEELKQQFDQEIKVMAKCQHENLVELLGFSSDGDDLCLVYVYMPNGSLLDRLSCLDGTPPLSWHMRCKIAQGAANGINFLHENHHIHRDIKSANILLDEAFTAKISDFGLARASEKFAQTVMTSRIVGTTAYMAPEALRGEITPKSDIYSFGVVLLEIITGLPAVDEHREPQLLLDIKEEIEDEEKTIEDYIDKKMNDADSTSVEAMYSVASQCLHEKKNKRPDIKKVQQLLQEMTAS
How it was run: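 Cells treated with compound, lysed, and target protein detected by Western blot (SDS-PAGE, nitrocellulose transfer). DC50 taken as the concentration giving band grayscale half that of DMSO control, estimated by concentration-response fitting; remaining protein (%) from target band normalised to internal control band; degradation (%) = 1 − remaining.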

| Compound | inhibition at 0.01 µM [1] [%] | inhibition at 0.5 µM [1] [%] | inhibition at 0.01 µM [2] [%] | inhibition at 0.5 µM [2] [%] | inhibition at 0.01 µM [3] [%] | inhibition at 0.5 µM [4] [%] | inhibition at 0.01 µM [5] [%] | inhibition at 0.5 µM [5] [%] | Degradation of substrate protein IRAK4 (substrate protein remaining %) (IRAK4) |
| --- | --- | --- | --- | --- | --- | --- | --- | --- | --- |
| O=C1CCN(N2Cc3cc(CN4CCC(n5cc(NC(=O)c6coc(-c7ccnc(NCC(F)(F)F)c7)n6)c(C(F)F)n5)CC4)ccc3C2=O)C(=O)N1 [GT-05184, N-(3-(difluoromethyl)-1-(1-((2-(2,4-dioxotetrahydropyrimidin-1(2H)-yl)-1-oxoisoindolin-5-yl)methyl)piperidin-4-yl)-1H-pyrazol-4-yl)-2-(2-((2,2,2-trifluoroethyl)amino)pyridin-4-yl) oxazole-4-carboxamide] | 50 to 60 | 80 to 100 | 5 to 10 | 80 to 100 | 20 to 25 | 80 to 100 | 3 to 7 | 80 to 100 |  |
| CC(C)(O)c1cc2nc(C3CCN(CC4CCN(c5ccc6c(c5)C(=O)N(N5CCC(=O)NC5=O)C6=O)CC4)CC3)oc2cc1NC(=O)c1cccc(C(F)(F)F)n1 [GT-05222, N-(2-(1-((1-(2-(2,4-dioxotetrahydropyrimidin-1(2H)-yl)-1,3-dioxoisoindolin-5-yl)piperidin-4-yl)methyl)piperidin-4-yl)-5-(2-hydroxypropan-2-yl)benzo[d]oxazol-6-yl)-6-(trifluoromethyl) picolinamide] |  |  | 30 to 40 | 25 to 30 | 30 to 40 | 30 to 40 |  |  |  |
| O=C1CCN(N2C(=O)c3cccc(N4CCC(CN5CCC(n6cc(NC(=O)c7cnn8ccc(N9CCOCC9)nc78)c(C(F)F)n6)CC5)CC4)c3C2=O)C(=O)N1 [GT-05224, N-(3-(difluoromethyl)-1-(1-((1-(2-(2,4-dioxotetrahydropyrimidin-1(2H)-yl)-1,3-dioxoisoindolin-4-yl)piperidin-4-yl)methyl)piperidin-4-yl)-1H-pyrazol-4-yl)-5-morpholinopyrazolo[1,5-a]pyrimidine-3-carboxamide] | 50 to 60 | 80 to 100 | 15 to 20 | 60 to 80 | 20 to 25 | 30 to 40 | 0 to 3 | 80 to 100 |  |
| O=C1CCN(N2C(=O)c3cc(F)c(N4CCN(C[C@H]5CC[C@H](n6cc(NC(=O)c7cnn8ccc(N9C[C@H]%10C[C@@H]9CO%10)nc78)c(C(F)F)n6)CC5)CC4)cc3C2=O)C(=O)N1 [GT-05239, 5-((1R,4R)-2-oxa-5-azabicyclo[2.2.1]heptan-5-yl)-N-(3-(difluoromethyl)-1-((1r,4R)-4-((4-(2-(2,4-dioxotetrahydropyrimidin-1(2H)-yl)-6-fluoro-1,3-dioxoisoindolin-5-yl)piperazin-1-yl)methyl)cyclohexyl)-1H-pyrazol-4-yl)pyrazolo[1,5-a]pyrimidine-3-carboxamide] |  |  |  |  | 30 to 40 | 20 to 25 |  |  | A (0%≤substrate protein remaining %≤80%) |
| CC(C)(O)c1cc2nc(C3CCN(Cc4ccc5c(c4)CN(N4CCC(=O)NC4=O)C5=O)CC3)sc2cc1NC(=O)c1cccc(C(F)(F)F)n1 [GT-05747, N-(2-(1-((2-(2,4-dioxotetrahydropyrimidin-1(2H)-yl)-1-oxoisoindolin-5-yl)methyl)piperidin-4-yl)-5-(2-hydroxypropan-2-yl)benzo[d]thiazol-6-yl)-6-(trifluoromethyl) picolinamide] | 36 to 45 | 80 to 100 |  |  | 25 to 30 | 25 to 30 |  |  |  |
| Cc1cc(-c2nc(C(=O)Nc3cc4oc(N5CCN(Cc6ccc7c(c6)CN(N6CCC(=O)NC6=O)C7=O)CC5)nc4nc3N3CC[C@@H](O)C3)co2)ccn1 [GT-05750, (R)—N-(2-(4-((2-(2,4-dioxotetrahydropyrimidin-1(2H)-yl)-1-oxoisoindolin-5-yl)methyl)piperazin-1-yl)-5-(3-hydroxypyrrolidin-1-yl)oxazolo[4,5-b]pyridin-6-yl)-2-(2-methylpyridin-4-yl) oxazole-4-carboxamide] | 36 to 45 | 80 to 100 |  |  | 25 to 30 | 20 to 25 |  |  |  |
| O=C1CCN(N2C(=O)c3ccc(N4CCC(N5CCC(CN6CCC(n7cc(NC(=O)c8cnn9ccc(N%10CCOCC%10)nc89)c(C(F)F)n7)CC6)CC5)CC4)cc3C2=O)C(=O)N1 [GT-05760, N-(3-(difluoromethyl)-1-(1-((1′-(2-(2,4-dioxotetrahydropyrimidin-1(2H)-yl)-1,3-dioxoisoindolin-5-yl)-[1,4′-bipiperidin]-4-yl)methyl)piperidin-4-yl)-1H-pyrazol-4-yl)-5-morpholinopyrazolo[1,5-a]pyrimidine-3-carboxamide] | 50 to 60 | 80 to 100 | 25 to 30 | 30 to 40 | 25 to 30 | 30 to 40 |  |  |  |
| Cc1cc(-c2nc(C(=O)Nc3cc4oc(N5CCN(Cc6ccc7c(c6)C(=O)N(N6CCC(=O)NC6=O)C7=O)CC5)nc4nc3N3CC[C@@H](O)C3)co2)ccn1 [GT-05803, (R)—N-(2-(4-((2-(2,4-dioxotetrahydropyrimidin-1(2H)-yl)-1,3-dioxoisoindolin-5-yl)methyl)piperazin-1-yl)-5-(3-hydroxypyrrolidin-1-yl)oxazolo[4,5-b]pyridin-6-yl)-2-(2-methylpyridin-4-yl) oxazole-4-carboxamide] | 50 to 60 | 60 to 80 | 30 to 40 | 25 to 30 | 25 to 30 | 20 to 25 |  |  |  |
| CC(C)(O)c1cc2nc(C3CCN(CC4CCN(c5ccc6c(c5)C(=O)N(N5CCC(=O)NC5=O)C6=O)CC4)CC3)sc2cc1NC(=O)c1cccc(C(F)(F)F)n1 [GT-05819, N-(2-(1-((1-(2-(2,4-dioxotetrahydropyrimidin-1(2H)-yl)-1,3-dioxoisoindolin-5-yl)piperidin-4-yl)methyl)piperidin-4-yl)-5-(2-hydroxypropan-2-yl)benzo[d]thiazol-6-yl)-6-(trifluoromethyl) picolinamide] |  |  |  |  | 15 to 20 | 25 to 30 |  |  | A (0%≤substrate protein remaining %≤80%) |
